Source: patent US10899788B2, “Cyclic phosphate substituted nucleoside compounds and methods of use thereof for the treatment of viral diseases” (MERCK SHARP & DOHME CORP., priority 2016, dated 2021)

How the values were obtained:
[1] = Cytotoxicity assay in replicon cells (MTS); format: cell-based; conditions: HCV replicon cells (1b-Con1), three days post dosing, head prints EDU, method MTS, read-out: CC50 (EDU) Range
Protocol: (§1) To measure cell-based anti-HCV activity of the compounds of the present invention, replicon cells (1b-Con1) are seeded at 5000 cells/well in 96-well plates one day prior to treatment with a compound of the invention. Various concentrations of a test compound of the invention in DMSO are then added to the replicon cells, with the final concentration of DMSO at 0.5% and fetal bovine serum at 10% in the assay media. Cells are harvested three days post-dosing, and the replicon RNA level is determined using real-time RT-PCR (Taqman assay) with GAPDH RNA as endogenous control. EC50 values are calculated from experiments with 10 serial twofold dilutions of the inhibitor in triplicate. To measure cytotoxicity in replicon cells of an inhibitor, an MTS assay is performed according to the manufacturer's protocol for CellTiter 96 Aqueous One Solution Cell Proliferation Assay (Promega, Cat #G3580) three days post dosing on cells treated identically as in replicon activity assays. […] Cytotoxicity in other types of cells may be measured using the same MTS protocol.
(§2) Data were obtained using this method for selected compounds of the present invention, and are set forth below in Table 2.

[2] = tested on: HCV replicon cells (1b-Con1); assay: Replicon activity assay (cell-based anti-HCV activity); conditions: Hepatitis C virus, 72 h, three days post-dosing, replicon RNA level by real-time RT-PCR, read-out: EC50 (1b) Range
Protocol: as §1, §2

| SMILES | CC50 at 3 days [1] [µM] | EC50 [2] [µM] |
| --- | --- | --- |
| C#C[C@]1(C)[C@@H]2O[P@](=O)(OCCC(=O)OC(C)C)OC[C@H]2O[C@H]1n1ccc(=O)[nH]c1=O [Compound 26B] | > 50 | > 10 |
| CC(C)OC(=O)CCO[P@@]1(=O)OC[C@H]2O[C@@H](n3ccc(=O)[nH]c3=O)[C@](C)(N)[C@@H]2O1 [Compound 28A] | > 50 | > 10 |
| CC(C)OC(=O)CCO[P@]1(=O)OC[C@H]2O[C@@H](n3ccc(=O)[nH]c3=O)[C@](C)(N)[C@@H]2O1 [Compound 28B] | > 50 | > 10 |
